For the assay, the target named is human NaV 1.8 (Homo sapiens, UniProt Q9Y5Y9). In words: E-VIPR assay detecting and measuring NaV inhibition properties. The assay is classed as cell-based. As to conditions: HEK cells expressing truncated human NaV 1.8; no human serum; read-out: IC50 in the E-VIPR Assay. Summed up:
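Membrane potential was followed by coumarin/oxonol FRET during electrical field stimulation of matrigel-seeded HEK cells carrying truncated human NaV1.8 plus KIR2.1. Dosing used 11 points, 3-fold steps, top 300 nM final, 0.625% DMSO, with or without 25% human serum.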

Molecules are shown by their SMILES. Some results are limits rather than exact numbers.

Sequence of human NaV 1.8 (Q9Y5Y9 126-399 limits assumed): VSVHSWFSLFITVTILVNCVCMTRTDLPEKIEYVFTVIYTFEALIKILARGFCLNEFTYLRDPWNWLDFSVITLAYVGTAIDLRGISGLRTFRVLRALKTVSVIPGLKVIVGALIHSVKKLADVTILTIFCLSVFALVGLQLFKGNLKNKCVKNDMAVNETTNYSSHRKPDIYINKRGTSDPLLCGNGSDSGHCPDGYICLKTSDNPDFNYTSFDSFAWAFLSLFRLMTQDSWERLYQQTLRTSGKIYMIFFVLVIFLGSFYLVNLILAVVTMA
Sequence of human NaV 1.8 (Q9Y5Y9 660-890 limits assumed): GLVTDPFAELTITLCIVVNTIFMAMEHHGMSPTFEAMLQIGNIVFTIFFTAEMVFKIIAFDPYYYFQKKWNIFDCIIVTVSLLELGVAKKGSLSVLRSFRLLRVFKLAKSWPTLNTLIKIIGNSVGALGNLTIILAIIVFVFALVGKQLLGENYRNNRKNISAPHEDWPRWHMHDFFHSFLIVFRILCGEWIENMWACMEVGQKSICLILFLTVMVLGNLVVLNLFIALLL
Sequence of human NaV 1.8 (Q9Y5Y9 1148-1722 limits assumed): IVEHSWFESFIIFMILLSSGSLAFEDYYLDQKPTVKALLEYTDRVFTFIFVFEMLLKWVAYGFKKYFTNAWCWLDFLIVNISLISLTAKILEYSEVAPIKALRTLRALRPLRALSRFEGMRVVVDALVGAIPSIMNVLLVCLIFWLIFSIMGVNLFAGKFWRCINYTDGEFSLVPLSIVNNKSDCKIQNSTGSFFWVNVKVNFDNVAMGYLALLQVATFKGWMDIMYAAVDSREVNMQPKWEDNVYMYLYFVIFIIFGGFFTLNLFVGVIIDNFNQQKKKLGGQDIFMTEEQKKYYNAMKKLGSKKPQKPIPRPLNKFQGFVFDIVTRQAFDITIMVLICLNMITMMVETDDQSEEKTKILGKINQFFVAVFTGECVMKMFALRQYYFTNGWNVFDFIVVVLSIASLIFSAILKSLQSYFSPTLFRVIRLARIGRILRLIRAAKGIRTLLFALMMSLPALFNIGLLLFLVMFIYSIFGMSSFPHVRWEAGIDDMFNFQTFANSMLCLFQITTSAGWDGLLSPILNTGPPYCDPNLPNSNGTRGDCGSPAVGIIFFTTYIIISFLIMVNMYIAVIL

As usually defined, the IC50 is the concentration that gives 50% inhibition. As for `C[C@H]1[C@@H](c2ccc(F)c(F)c2OC(F)F)[C@H](C(=O)Nc2ccc(C(N)=O)cc2)O[C@@]1(C)C(F)(F)F` (stereo in doubt) [Compound 74, rel-(2R,3S,4S,5R)-N-(4-carbamoylphenyl)-3-(2-(difluoromethoxy)-3,4-difluorophenyl)-4,5-dimethyl-5-(trifluoromethyl)tetrahydrofuran-2-carboxamide], the IC50 was < 10 nM. In the case of `COc1c([C@H]2[C@H](C(=O)Nc3ccc4nc(C(=O)N5CCOCC5)cn4c3)O[C@@](C)(C(F)(F)F)[C@H]2C)ccc(F)c1F` [Compound 259, (2R,3S,4S,5R)-3-(3,4-difluoro-2-methoxyphenyl)-4,5-dimethyl-N-(2-(morpholine-4-carbonyl)imidazo[1,2-a]pyridin-6-yl)-5-(trifluoromethyl)tetrahydrofuran-2-carboxamide], the IC50 lay in the range of 10 to 100 nM. As for `COc1c([C@H]2[C@H](C(=O)Nc3ccc4nc(C(=O)N(C)C)cn4c3)O[C@@](C)(C(F)(F)F)[C@H]2C)ccc(F)c1F` [Compound 261, 6-((2R,3S,4S,5R)-3-(3,4-difluoro-2-methoxyphenyl)-4,5-dimethyl-5-(trifluoromethyl)tetrahydrofuran-2-carboxamido)-N,N-dimethylimidazo[1,2-a]pyridine-2-carboxamide], the 50% inhibitory concentration (IC50) fell in the range of 10 to 100 nM. For `COc1c([C@H]2[C@H](C(=O)Nc3ccnc(CN[C@@H]4CCOC4)c3)O[C@@](C)(C(F)(F)F)[C@H]2C)ccc(F)c1F` [Compound 23] the value was < 10 nM; for `CCOc1c([C@H]2[C@H](C(=O)Nc3ccnc(S(C)(=O)=O)c3)O[C@@](C)(C(F)(F)F)[C@H]2C)ccc(F)c1F` (stereo in doubt) [Compound 108, rel-(2R,3S,4S,5R)-3-(2-ethoxy-3,4-difluorophenyl)-4,5-dimethyl-N-(2-(methylsulfonyl)pyridin-4-yl)-5-(trifluoromethyl)tetrahydrofuran-2-carboxamide], < 10 nM; for `COc1c([C@H]2[C@H](C(=O)Nc3cnc4c(c3)CCC4O)O[C@@](C)(C(F)(F)F)[C@H]2C)ccc(F)c1F` (single isomer, unassigned) [Compound 17], 10 to 100 nM.

In the case of `COc1c([C@H]2[C@H](C(=O)Nc3ccnc(N4C[C@@H]5C[C@H](C4=O)N5C)c3)O[C@@](C)(C(F)(F)F)[C@H]2C)ccc(F)c1F` (single isomer, unassigned) [Compound 510, rel-(2R*,3S*,4S*,5R*)-3-(3,4-difluoro-2-methoxyphenyl)-4,5-dimethyl-N-(2-((1R,5S)-6-methyl-2-oxo-3,6-diazabicyclo[3.1.1]heptan-3-yl)pyridin-4-yl)-5-(trifluoromethyl)tetrahydrofuran-2-carboxamide], the IC50 is 10 to 100 nM. For `C[C@H]1[C@@H](c2ccc(F)c(F)c2OC(F)F)[C@H](C(=O)Nc2ccnc(S(C)(=O)=O)c2)O[C@@]1(C)C(F)(F)F` (single isomer, unassigned) [Compound 85] the value was < 10 nM.

On to `COc1c([C@H]2[C@H](C(=O)Nc3cncc(CO)n3)O[C@@](C)(C(F)(F)F)[C@H]2C)ccc(F)c1F` [Compound 382, (2R,3S,4S,5R)-3-(3,4-difluoro-2-methoxyphenyl)-N-(6-(hydroxymethyl)pyrazin-2-yl)-4,5-dimethyl-5-(trifluoromethyl)tetrahydrofuran-2-carboxamide], for which the IC50 lay in the range of 100 to 1000 nM. For `COc1c([C@H]2[C@H](C(=O)Nc3ccnc(O[C@H]4COC[C@H]4O)c3)O[C@@](C)(C(F)(F)F)[C@H]2C)ccc(F)c1F` (single isomer, unassigned) [Compound 240, rel-(2R*,3S*,4S*,5R*)-3-(3,4-difluoro-2-methoxyphenyl)-N-(2-(((3S,4R)-4-hydroxytetrahydrofuran-3-yl)oxy)pyridin-4-yl)-4,5-dimethyl-5-(trifluoromethyl)tetrahydrofuran-2-carboxamide] the value was < 10 nM; for `CNC(=O)c1ccc(NC(=O)[C@H]2O[C@](C)(C(F)(F)F)[C@H](C)[C@@H]2c2ccc(F)c(C(F)F)c2OC)cn1` (stereo in doubt) [Compound 171, rel-5-((2S,3R,4R,5S)-3-(3-(difluoromethyl)-4-fluoro-2-methoxyphenyl)-4,5-dimethyl-5-(trifluoromethyl)tetrahydrofuran-2-carboxamido)-N-methylpicolinamide], 10 to 100 nM.

As for `C[C@H]1[C@@H](c2ccc(F)c(F)c2OCCO)[C@H](C(=O)Nc2cnsc2)O[C@@]1(C)C(F)(F)F` [Compound 572, (2R,3S,4S,5R)-3-(3,4-difluoro-2-(2-hydroxyethoxy)phenyl)-N-(isothiazol-4-yl)-4,5-dimethyl-5-(trifluoromethyl)tetrahydrofuran-2-carboxamide], the IC50 is 10 to 100 nM. The value for `COc1c([C@H]2[C@H](C(=O)Nc3ccc(C(N)=O)nc3)O[C@@](C)(C(F)(F)F)[C@H]2C)ccc(F)c1F` [Compound 1, 5-((2R,3S,4S,5R)-3-(3,4-difluoro-2-methoxyphenyl)-4,5-dimethyl-5-(trifluoromethyl)tetrahydrofuran-2-carboxamido)picolinamide] was < 10 nM; that for `COc1c([C@H]2[C@H](C(=O)Nc3ccc(-n4ccc(C)n4)nc3)O[C@@](C)(C(F)(F)F)[C@H]2C)ccc(F)c1F` [Compound 395, (2R,3S,4S,5R)-3-(3,4-difluoro-2-methoxyphenyl)-4,5-dimethyl-N-(6-(3-methyl-1H-pyrazol-1-yl)pyridin-3-yl)-5-(trifluoromethyl)-tetrahydrofuran-2-carboxamide] was 10 to 100 nM; that for `COc1c([C@H]2[C@H](C(=O)Nc3ccnc(N4C(=O)[C@@H]5C[C@H]4CN5C)c3)O[C@@](C)(C(F)(F)F)[C@H]2C)ccc(F)c1F` [Compound 489, (2R,3S,4S,5R)-3-(3,4-difluoro-2-methoxyphenyl)-4,5-dimethyl-N-(2-((1S,4S)-5-methyl-3-oxo-2,5-diazabicyclo[2.2.1]heptan-2-yl)pyridin-4-yl)-5-(trifluoromethyl)tetrahydrofuran-2-carboxamide] was 10 to 100 nM. Consider `Cc1nn(C(F)F)cc1NC(=O)[C@@H]1O[C@@](C)(C(F)(F)F)[C@@H](C)[C@H]1c1ccc(F)c(F)c1CCc1cn[nH]c1` [Compound 681, (2R,3S,4S,5R)-3-(2-(2-(1H-pyrazol-4-yl)ethyl)-3,4-difluorophenyl)-N-(1-(difluoromethyl)-3-methyl-1H-pyrazol-4-yl)-4,5-dimethyl-5-(trifluoromethyl)tetrahydrofuran-2-carboxamide], for which the IC50 lay in the range of 10 to 100 nM.

Consider `COc1c([C@H]2[C@H](C(=O)Nc3ccnc(C(O)C4CC4)c3)O[C@@](C)(C(F)(F)F)[C@H]2C)ccc(F)c1F` (single isomer, unassigned) [Compound 251, rel-(2R*,3S*,4S*,5R*)-N-(2-(cyclopropyl(hydroxy)methyl)pyridin-4-yl)-3-(3,4-difluoro-2-methoxyphenyl)-4,5-dimethyl-5-(trifluoromethyl)tetrahydrofuran-2-carboxamide], for which the IC50 is < 10 nM. On to `COc1c([C@H]2[C@H](C(=O)Nc3ccnc(C(O)CO)c3)O[C@@](C)(C(F)(F)F)[C@H]2C)ccc(F)c1C` (single isomer, unassigned) [Compound 135], for which the IC50 was < 10 nM.

These data come from US20240368135A1 (VERTEX PHARMACEUTICALS INCORPORATED, priority 2021, published 2024).
